PubChem BioAssay AID1963843 (Molecular Pharmacology Branch, DTP, NCI, 2024)

Test system: 616215-338-R-J1-PDC complex spheroid viability
Assay: Anticancer human tumor 616215-338-R-J1-PDC patient-derived colon adenocarcinoma cell line growth inhibition [POLQ]
Conditions: for IC50: curve of first compound; for viability, T/C: stronger effect = lower value
Protocol: Multicellular complex tumor spheroid response to Polymerase (POL) inhibitors (novobiocin, ART-558, RP6685) in combination with a variety of drugs and investigational agents in selected tumor cell lines
The POL inhibitors (novobiocin, ART-558, and RP6685) were evaluated both individually and in combination with standard of care and investigational anticancer small molecules within a complex spheroid model of solid tumors. . Complex spheroids include a stromal component modeled by human endothelial cells (HUVEC) and fibroblasts modeled by human mesenchymal stem cells (MSCs). The concentration ranges selected for each drug and investigational agent were based upon clinically achievable concentrations if the clinical Cmax of the agent was known.
Compounds. The drugs and investigational agents: novobiocin (NSC847541), ART-558 (NSC835418), RP-6685 (NSC848927), peposertib (NSC802822), ceralasertib (NSC780249), elimusertib (NSC800525), camonsertib (NSC841442), AZD-1390 (NSC803789), olaparib (NSC753686), talazoparib (NSC767125), rucaparib (NSC756644), sotorasib (NSC818433), MRTX-1133 (NSC836407), SN-38 (NSC673596), topotecan (NSC609699), epotoside (NSC141540), doxorubicin (NSC123127), gemcitabine (NSC613327), 5-fluorouracil (NSC19893), paclitaxel (NSC125973), vemurafenib (NSC761431), MSA-2 (NSC828583), SN-011 (NSC837082), adavosertib (NSC754352), prexasertib (NSC758257), carboplatin (NSC241240) and oxaliplatin (NSC266046), were obtained from the National Cancer Institute (NCI) Developmental Therapeutics Program Chemical Repository (21). The FDA-approved anticancer drug set is available from the Developmental Therapeutics Program at https://dtp.cancer.gov/organization/dscb/obtaining/. […] The stock solutions were prepared in dimethyl sulfoxide (DMSO, Sigma-Aldrich, St. Louis, MO, cat. D2650), except for the platinum compounds which were prepared in saline (Quality Biological, Gaithersburg, MD, cat. 114-055-101), at 800-fold the tested concentration and stored at -70 degrees C prior to their use. All drugs and investigational agents were tested over a range starting from a high concentration at or near the clinical Cmax and decreasing in half-log increments. If the clinical Cmax for an agent had not been determined, the highest concentration tested was 10 microM, except for SN-38, which was tested at a high concentration of 1 microM.
Cell Culture. All cells were maintained in an incubator at 37 degrees C and 5% CO2 with 95% humidity. The PDC lines were cultured according to standard operating procedures established by the NCI PDMR (https://pdmr.cancer.gov). Table 3 of the manuscript, lists the cell lines along with the number of the three cell types plated to form the mct-spheroids and media for tumor cell growth. After thawing, all PDC lines, except 997537-175-T-J1-PDC and 415267-285-R-J2-PDC, were cultured in Matrigel-coated flasks prepared with a working solution of 1X Ham's F-12 nutrient mix, without supplementation (Thermo Fisher Scientific, cat. 11765054), 100 U/mL penicillin-streptomycin (Thermo Fisher Scientific, cat. 15140122), and 2.5% Matrigel (Corning Inc., Corning, NY, cat. 354248) for the first three passages. The two PDC lines 997537-175-T-J1-PDC and 415267-285-R-J2-PDC were cultured on uncoated flasks. The 857933-349-R-J2-PDC line was cultured in 6C/Colon 1B media containing advanced DMEM/F-12 (Thermo Fisher Scientific, cat. 12634028), 10 mM HEPES (Thermo Fisher Scientific, cat. 15630080), 1X GlutaMAX supplement (Thermo Fisher Scientific, cat. 35050061), 0.1 mg/mL primocin (InvivoGen, San Diego, CA, cat. ant-pm-2), 10% defined fetal bovine serum, heat inactivated (HyClone Laboratories Inc., Logan, UT, cat. SH30070.03HI), 50% L-WRN conditioned media (ATCC, cat. CRL-3276), 1.25 mM N-Acetyl-L-cysteine (Sigma-Aldrich, cat. A9165), 10 mM nicotinamide (Sigma-Aldrich, cat. N0636), 1X B-27 supplement (Thermo Fisher Scientific, cat. 17504044), 1X N-2 supplement (Thermo Fisher Scientific, cat. […]

[1] = second compound 0.0316 µM, first compound 0.0316 µM
[2] = second compound 0.0316 µM, first compound 0.1 µM
[3] = second compound 0.0316 µM, first compound 0.316 µM
[4] = second compound 0.0316 µM, first compound 1 µM
[5] = second compound 0.0316 µM, first compound 3.16 µM
[6] = second compound 0.0316 µM, first compound 10 µM
[7] = second compound 0.1 µM, first compound 0.0316 µM
[8] = second compound 0.1 µM, first compound 0.1 µM
[9] = second compound 0.1 µM, first compound 0.316 µM
[10] = second compound 0.1 µM, first compound 1 µM
[11] = second compound 0.1 µM, first compound 3.16 µM
[12] = second compound 0.1 µM, first compound 10 µM
[13] = second compound 0.316 µM, first compound 0.0316 µM
[14] = second compound 0.316 µM, first compound 0.1 µM
[15] = second compound 0.316 µM, first compound 0.316 µM
[16] = second compound 0.316 µM, first compound 1 µM
[17] = second compound 0.316 µM, first compound 3.16 µM
[18] = second compound 0.316 µM, first compound 10 µM
[19] = second compound 1 µM, first compound 0.0316 µM
[20] = second compound 1 µM, first compound 0.1 µM
[21] = second compound 1 µM, first compound 0.316 µM
[22] = second compound 1 µM, first compound 1 µM
[23] = second compound 1 µM, first compound 3.16 µM
[24] = second compound 1 µM, first compound 10 µM
[25] = second compound 3.16 µM, first compound 0.0316 µM
[26] = second compound 3.16 µM, first compound 0.1 µM
[27] = second compound 3.16 µM, first compound 0.316 µM
[28] = second compound 3.16 µM, first compound 1 µM
[29] = second compound 3.16 µM, first compound 3.16 µM
[30] = second compound 3.16 µM, first compound 10 µM
[31] = second compound 10 µM, first compound 0.0316 µM
[32] = second compound 10 µM, first compound 0.1 µM
[33] = second compound 10 µM, first compound 0.316 µM
[34] = second compound 10 µM, first compound 1 µM
[35] = second compound 10 µM, first compound 3.16 µM
[36] = second compound 10 µM, first compound 10 µM
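Note: spheroids exposed to compounds for one week before readout.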
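Throughout, for viability, T/C: percent viability relative to DMSO vehicle wells taken as 100%.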

COc1cc(C2c3cc4c(cc3C(OC3OC5COC(C)OC5C(O)C3O)C3COC(=O)C23)OCO4)cc(OC)c1O (stereo unspecified) + COC1C(OC(N)=O)C(O)C(Oc2ccc3c(O)c(NC(=O)c4ccc(O)c(CC=C(C)C)c4)c(=O)oc3c2C)OC1(C)C
IC50 (second compound 0.0316 µM): > 10 µM
IC50 (second compound 0.1 µM): > 10 µM
IC50 (second compound 0.316 µM): > 10 µM
IC50 (second compound 1 µM): 8.65 µM
IC50 (second compound 3.16 µM): > 10 µM
IC50 (second compound 10 µM): > 10 µM
viability, T/C [1]: 100%
viability, T/C [2]: 102%
viability, T/C [3]: 95.3%
viability, T/C [4]: 83%
viability, T/C [5]: 88.3%
viability, T/C [6]: 54.2%
viability, T/C [7]: 117%
viability, T/C [8]: 117%
viability, T/C [9]: 95.6%
viability, T/C [10]: 81.8%
viability, T/C [11]: 77.1%
viability, T/C [12]: 59.8%
viability, T/C [13]: 108%
viability, T/C [14]: 106%
viability, T/C [15]: 93.4%
viability, T/C [16]: 85.8%
viability, T/C [17]: 81%
viability, T/C [18]: 55%
viability, T/C [19]: 104%
viability, T/C [20]: 113%
viability, T/C [21]: 92.5%
viability, T/C [22]: 86.1%
viability, T/C [23]: 74.5%
viability, T/C [24]: 45.8%
viability, T/C [25]: 111%
viability, T/C [26]: 111%
viability, T/C [27]: 100%
viability, T/C [28]: 79%
viability, T/C [29]: 68.1%
viability, T/C [30]: 59.3%
viability, T/C [31]: 106%
viability, T/C [32]: 108%
viability, T/C [33]: 84.5%
viability, T/C [34]: 82.5%
viability, T/C [35]: 74.1%
viability, T/C [36]: 56.5%

Nc1ccn(C2OC(CO)C(O)C2(F)F)c(=O)n1 (stereo unspecified) + COC1C(OC(N)=O)C(O)C(Oc2ccc3c(O)c(NC(=O)c4ccc(O)c(CC=C(C)C)c4)c(=O)oc3c2C)OC1(C)C
IC50 (second compound 0.0316 µM): < 0.0316 µM
IC50 (second compound 0.1 µM): 0.0657 µM
IC50 (second compound 0.316 µM): 0.0657 µM
IC50 (second compound 1 µM): 0.0617 µM
IC50 (second compound 3.16 µM): 0.0579 µM
IC50 (second compound 10 µM): 0.0596 µM
viability, T/C [1]: 49.3%
viability, T/C [2]: 32.9%
viability, T/C [3]: 24%
viability, T/C [4]: 35%
viability, T/C [5]: 34%
viability, T/C [6]: 30%
viability, T/C [7]: 62.5%
viability, T/C [8]: 42.8%
viability, T/C [9]: 28.5%
viability, T/C [10]: 29.1%
viability, T/C [11]: 30.1%
viability, T/C [12]: 35.3%
viability, T/C [13]: 56.9%
viability, T/C [14]: 46%
viability, T/C [15]: 26.4%
viability, T/C [16]: 27.7%
viability, T/C [17]: 32.1%
viability, T/C [18]: 32.9%
viability, T/C [19]: 60.1%
viability, T/C [20]: 42.7%
viability, T/C [21]: 24.4%
viability, T/C [22]: 23.2%
viability, T/C [23]: 32.6%
viability, T/C [24]: 29.3%
viability, T/C [25]: 64.8%
viability, T/C [26]: 39.5%
viability, T/C [27]: 23.1%
viability, T/C [28]: 27.8%
viability, T/C [29]: 30.6%
viability, T/C [30]: 30%
viability, T/C [31]: 69.3%
viability, T/C [32]: 34.6%
viability, T/C [33]: 28.5%
viability, T/C [34]: 28.1%
viability, T/C [35]: 28.4%
viability, T/C [36]: 36.5%

O=c1[nH]cc(F)c(=O)[nH]1 + COC1C(OC(N)=O)C(O)C(Oc2ccc3c(O)c(NC(=O)c4ccc(O)c(CC=C(C)C)c4)c(=O)oc3c2C)OC1(C)C
IC50 (second compound 0.0316 µM): > 10 µM
IC50 (second compound 0.1 µM): > 10 µM
IC50 (second compound 0.316 µM): > 10 µM
IC50 (second compound 1 µM): > 10 µM
IC50 (second compound 3.16 µM): > 10 µM
IC50 (second compound 10 µM): > 10 µM
viability, T/C [1]: 101%
viability, T/C [2]: 94.6%
viability, T/C [3]: 73.4%
viability, T/C [4]: 61.1%
viability, T/C [5]: 60.7%
viability, T/C [6]: 68.7%
viability, T/C [7]: 99.4%
viability, T/C [8]: 96.3%
viability, T/C [9]: 75.3%
viability, T/C [10]: 64.2%
viability, T/C [11]: 61%
viability, T/C [12]: 61.9%
viability, T/C [13]: 100%
viability, T/C [14]: 97.2%
viability, T/C [15]: 67.3%
viability, T/C [16]: 59.3%
viability, T/C [17]: 60%
viability, T/C [18]: 63%
viability, T/C [19]: 95.8%
viability, T/C [20]: 94.1%
viability, T/C [21]: 75.2%
viability, T/C [22]: 58.1%
viability, T/C [23]: 52.1%
viability, T/C [24]: 59%
viability, T/C [25]: 99.2%
viability, T/C [26]: 107%
viability, T/C [27]: 75.7%
viability, T/C [28]: 69.8%
viability, T/C [29]: 65.4%
viability, T/C [30]: 65.8%
viability, T/C [31]: 111%
viability, T/C [32]: 99.2%
viability, T/C [33]: 68.5%
viability, T/C [34]: 57.9%
viability, T/C [35]: 54.2%
viability, T/C [36]: 61.2%
